Measured values reported in PubChem BioAssay (NCI).
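Test compounds were applied to cells in 96-well plates for 48 hours at 5 doses. TGI is the concentration that stops growth completely.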

How the values were obtained:
Experiment in all cases: inhibition of tumour cell growth, NCI panel, 48 h
786-0 renal = system: 786-0 renal
A498 renal = system: A498 renal
A549 NSCLC = system: A549 NSCLC
ACHN renal = system: ACHN renal
CAKI-1 renal = system: CAKI-1 renal
CCRF-CEM leukemia = system: CCRF-CEM leukemia
COLO 205 colon = system: COLO 205 colon
DLD-1 colon = system: DLD-1 colon
DMS 273 small cell lung = system: DMS 273 small cell lung
EKVX NSCLC = system: EKVX NSCLC
HCC-2998 colon = system: HCC-2998 colon
HCT-116 colon = system: HCT-116 colon
HCT-15 colon = system: HCT-15 colon
HOP-18 NSCLC = system: HOP-18 NSCLC
HOP-62 NSCLC = system: HOP-62 NSCLC
HOP-92 NSCLC = system: HOP-92 NSCLC
HT29 colon = system: HT29 colon
IGROV1 ovarian = system: IGROV1 ovarian
K-562 leukemia = system: K-562 leukemia
KM12 colon = system: KM12 colon
KM20L2 colon = system: KM20L2 colon
LOX IMVI melanoma = system: LOX IMVI melanoma
LXFL 529 NSCLC = system: LXFL 529 NSCLC
M14 melanoma = system: M14 melanoma
M19-MEL melanoma = system: M19-MEL melanoma
MALME-3M melanoma = system: MALME-3M melanoma
MOLT-4 leukemia = system: MOLT-4 leukemia
NCI-H226 lung = system: NCI-H226 lung
NCI-H23 lung = system: NCI-H23 lung
NCI-H460 lung = system: NCI-H460 lung
NCI-H522 lung = system: NCI-H522 lung
OVCAR-3 ovarian = system: OVCAR-3 ovarian
OVCAR-4 ovarian = system: OVCAR-4 ovarian
OVCAR-5 ovarian = system: OVCAR-5 ovarian
RPMI-8226 leukemia = system: RPMI-8226 leukemia
RXF 393 renal = system: RXF 393 renal
SF-268 CNS = system: SF-268 CNS
SF-295 CNS = system: SF-295 CNS
SF-539 CNS = system: SF-539 CNS
SK-MEL-2 melanoma = system: SK-MEL-2 melanoma
SK-MEL-28 melanoma = system: SK-MEL-28 melanoma
SK-MEL-5 melanoma = system: SK-MEL-5 melanoma
SK-OV-3 ovarian = system: SK-OV-3 ovarian
SN12C renal = system: SN12C renal
SNB-19 CNS = system: SNB-19 CNS
SNB-75 CNS = system: SNB-75 CNS
SNB-78 CNS = system: SNB-78 CNS
SR leukemia = system: SR leukemia
SW-620 colon = system: SW-620 colon
TK-10 renal = system: TK-10 renal
U251 CNS = system: U251 CNS
UACC-257 melanoma = system: UACC-257 melanoma
UACC-62 melanoma = system: UACC-62 melanoma
UO-31 renal = system: UO-31 renal
DMS 114 small cell lung = system: DMS 114 small cell lung
HL-60(TB) leukemia = system: HL-60(TB) leukemia
OVCAR-8 ovarian = system: OVCAR-8 ovarian
XF 498 CNS = system: XF 498 CNS

Cc1ccc(C)c(NC(=O)CC/C(=N\NC(=O)C(=O)NN)C(C)C(=O)c2ccc(O)cc2)c1 (stereo unspecified)
TGI (786-0 renal): > 100 µM | TGI (A498 renal): > 100 µM | TGI (A549 NSCLC): > 100 µM | TGI (ACHN renal): > 100 µM | TGI (CAKI-1 renal): > 100 µM | TGI (CCRF-CEM leukemia): > 100 µM | TGI (COLO 205 colon): > 100 µM | TGI (DLD-1 colon): > 100 µM | TGI (DMS 273 small cell lung): > 100 µM | TGI (EKVX NSCLC): > 100 µM | TGI (HCC-2998 colon): > 100 µM | TGI (HCT-116 colon): > 100 µM | TGI (HCT-15 colon): > 100 µM | TGI (HOP-18 NSCLC): > 100 µM | TGI (HOP-62 NSCLC): > 100 µM | TGI (HOP-92 NSCLC): > 100 µM | TGI (HT29 colon): > 100 µM | TGI (IGROV1 ovarian): > 100 µM | TGI (K-562 leukemia): > 100 µM | TGI (KM12 colon): > 100 µM | TGI (KM20L2 colon): > 100 µM | TGI (LOX IMVI melanoma): > 100 µM | TGI (LXFL 529 NSCLC): > 100 µM | TGI (M14 melanoma): > 100 µM | TGI (M19-MEL melanoma): > 100 µM | TGI (MALME-3M melanoma): > 100 µM | TGI (MOLT-4 leukemia): > 100 µM | TGI (NCI-H226 lung): > 100 µM | TGI (NCI-H23 lung): > 100 µM | TGI (NCI-H460 lung): > 100 µM | TGI (NCI-H522 lung): > 100 µM | TGI (OVCAR-3 ovarian): > 100 µM | TGI (OVCAR-4 ovarian): > 100 µM | TGI (OVCAR-5 ovarian): > 100 µM | TGI (RPMI-8226 leukemia): > 100 µM | TGI (RXF 393 renal): > 100 µM | TGI (SF-268 CNS): > 100 µM | TGI (SF-295 CNS): > 100 µM | TGI (SF-539 CNS): > 100 µM | TGI (SK-MEL-2 melanoma): > 100 µM | TGI (SK-MEL-28 melanoma): > 100 µM | TGI (SK-MEL-5 melanoma): > 100 µM | TGI (SK-OV-3 ovarian): > 100 µM | TGI (SN12C renal): > 100 µM | TGI (SNB-19 CNS): > 100 µM | TGI (SNB-75 CNS): > 100 µM | TGI (SNB-78 CNS): > 100 µM | TGI (SR leukemia): > 100 µM | TGI (SW-620 colon): > 100 µM | TGI (TK-10 renal): > 100 µM | TGI (U251 CNS): > 100 µM | TGI (UACC-257 melanoma): > 100 µM | TGI (UACC-62 melanoma): > 100 µM | TGI (UO-31 renal): > 100 µM

NC(N)=NS(=O)(=O)c1ccc(NCc2c3ccccc3[n+]([O-])c3ccccc23)cc1
TGI (786-0 renal): > 100 µM | TGI (A498 renal): > 100 µM | TGI (A549 NSCLC): > 100 µM | TGI (ACHN renal): 70.4 µM | TGI (CAKI-1 renal): > 100 µM | TGI (CCRF-CEM leukemia): 84.4 µM | TGI (COLO 205 colon): > 100 µM | TGI (DLD-1 colon): > 100 µM | TGI (DMS 114 small cell lung): 56.6 µM | TGI (DMS 273 small cell lung): > 100 µM | TGI (EKVX NSCLC): > 100 µM | TGI (HCC-2998 colon): > 100 µM | TGI (HCT-116 colon): 31.9 µM | TGI (HCT-15 colon): 74.4 µM | TGI (HL-60(TB) leukemia): 44.4 µM | TGI (HOP-18 NSCLC): 52.3 µM | TGI (HOP-62 NSCLC): > 100 µM | TGI (HOP-92 NSCLC): 28.5 µM | TGI (HT29 colon): > 100 µM | TGI (IGROV1 ovarian): > 100 µM | TGI (K-562 leukemia): > 100 µM | TGI (KM12 colon): > 100 µM | TGI (KM20L2 colon): > 100 µM | TGI (LOX IMVI melanoma): 90.9 µM | TGI (LXFL 529 NSCLC): 80.5 µM | TGI (M14 melanoma): > 100 µM | TGI (M19-MEL melanoma): > 100 µM | TGI (MALME-3M melanoma): 51.5 µM | TGI (MOLT-4 leukemia): 43.8 µM | TGI (NCI-H226 lung): 72.8 µM | TGI (NCI-H23 lung): > 100 µM | TGI (NCI-H460 lung): > 100 µM | TGI (NCI-H522 lung): > 100 µM | TGI (OVCAR-3 ovarian): > 100 µM | TGI (OVCAR-4 ovarian): 85.3 µM | TGI (OVCAR-5 ovarian): > 100 µM | TGI (OVCAR-8 ovarian): > 100 µM | TGI (RPMI-8226 leukemia): 74.3 µM | TGI (SF-268 CNS): 86.6 µM | TGI (SF-295 CNS): > 100 µM | TGI (SK-MEL-2 melanoma): > 100 µM | TGI (SK-MEL-28 melanoma): 62.5 µM | TGI (SK-MEL-5 melanoma): 33.5 µM | TGI (SK-OV-3 ovarian): > 100 µM | TGI (SN12C renal): > 100 µM | TGI (SNB-19 CNS): > 100 µM | TGI (SNB-75 CNS): 84.8 µM | TGI (SNB-78 CNS): > 100 µM | TGI (SW-620 colon): > 100 µM | TGI (TK-10 renal): > 100 µM | TGI (U251 CNS): > 100 µM | TGI (UACC-257 melanoma): > 100 µM | TGI (UACC-62 melanoma): > 100 µM | TGI (UO-31 renal): 73.8 µM

CCCCCCCCCCCCCC(=O)OC1CC(=O)OC1CO (stereo unspecified)
TGI (786-0 renal): > 100 µM | TGI (A498 renal): > 100 µM | TGI (A549 NSCLC): > 100 µM | TGI (ACHN renal): > 100 µM | TGI (CAKI-1 renal): > 100 µM | TGI (CCRF-CEM leukemia): 74.4 µM | TGI (COLO 205 colon): > 100 µM | TGI (DLD-1 colon): > 100 µM | TGI (DMS 114 small cell lung): > 100 µM | TGI (DMS 273 small cell lung): > 100 µM | TGI (EKVX NSCLC): > 100 µM | TGI (HCC-2998 colon): > 100 µM | TGI (HCT-116 colon): > 100 µM | TGI (HCT-15 colon): 38.4 µM | TGI (HL-60(TB) leukemia): 63.9 µM | TGI (HOP-18 NSCLC): 92.3 µM | TGI (HOP-62 NSCLC): > 100 µM | TGI (HOP-92 NSCLC): 43.1 µM | TGI (HT29 colon): > 100 µM | TGI (IGROV1 ovarian): > 100 µM | TGI (K-562 leukemia): 58.8 µM | TGI (KM12 colon): 56.7 µM | TGI (KM20L2 colon): > 100 µM | TGI (LOX IMVI melanoma): 73.5 µM | TGI (LXFL 529 NSCLC): > 100 µM | TGI (M14 melanoma): 39.7 µM | TGI (M19-MEL melanoma): > 100 µM | TGI (MALME-3M melanoma): > 100 µM | TGI (MOLT-4 leukemia): 52.1 µM | TGI (NCI-H460 lung): > 100 µM | TGI (OVCAR-3 ovarian): > 100 µM | TGI (OVCAR-4 ovarian): > 100 µM | TGI (OVCAR-5 ovarian): > 100 µM | TGI (OVCAR-8 ovarian): > 100 µM | TGI (RPMI-8226 leukemia): > 100 µM | TGI (RXF 393 renal): > 100 µM | TGI (SF-268 CNS): > 100 µM | TGI (SF-295 CNS): 45.5 µM | TGI (SF-539 CNS): > 100 µM | TGI (SK-MEL-2 melanoma): > 100 µM | TGI (SK-MEL-5 melanoma): > 100 µM | TGI (SK-OV-3 ovarian): > 100 µM | TGI (SN12C renal): > 100 µM | TGI (SNB-19 CNS): > 100 µM | TGI (SNB-75 CNS): > 100 µM | TGI (SNB-78 CNS): > 100 µM | TGI (SW-620 colon): > 100 µM | TGI (TK-10 renal): > 100 µM | TGI (U251 CNS): > 100 µM | TGI (UACC-257 melanoma): > 100 µM | TGI (UACC-62 melanoma): 51.1 µM | TGI (UO-31 renal): 92.6 µM | TGI (XF 498 CNS): > 100 µM
